Data: the supplement of paper PMC10307832

Experiments:
Test in all cases: relative viability (nuclei count vs DMSO), 5 days (fraction); higher = more cells survive
HOP-62 = tested on: HOP-62
Procedure, shortened: (§1)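 Relative viability is defined as nuclei in treated wells over nuclei in vehicle wells. Duplicate plates were run and medians reported. Lung cancer cell lines in 1536-well plates were dosed by pin tool one day after seeding, with one drug or with a fixed anchor-drug dose plus five library-drug doses (not always all listed) in √10 steps, and nuclei were counted after 5 days.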

SW 1573 = tested on: SW 1573
Procedure, shortened: as §1

PC-3 [JPC-3] = tested on: PC-3 [JPC-3]
Procedure, shortened: as §1

NCI-H1355 = tested on: NCI-H1355
Procedure, shortened: as §1

LU99A = tested on: LU99A
Procedure, shortened: as §1

NCI-H2405 = tested on: NCI-H2405
Procedure, shortened: as §1

NCI-H441 = tested on: NCI-H441
Procedure, shortened: as §1

NCI-H3122 = tested on: NCI-H3122
Procedure, shortened: as §1

EPLC-272H = tested on: EPLC-272H
Procedure, shortened: as §1

EKVX = tested on: EKVX
Procedure, shortened: as §1

H3255 = tested on: H3255
Procedure, shortened: as §1

LXF-289 = tested on: LXF-289
Procedure, shortened: as §1

NCI-H2228 = tested on: NCI-H2228
Procedure, shortened: as §1

LCLC-97TM1 = tested on: LCLC-97TM1
Procedure, shortened: as §1

NCI-H1650 = tested on: NCI-H1650
Procedure, shortened: as §1

NCI-H1993 = tested on: NCI-H1993
Procedure, shortened: as §1

LK-2 = tested on: LK-2
Procedure, shortened: as §1

SK-LU-1 = tested on: SK-LU-1
Procedure, shortened: as §1

HCC-827 = tested on: HCC-827
Procedure, shortened: as §1

ChaGo-K-1 = tested on: ChaGo-K-1
Procedure, shortened: as §1

NCI-H2170 = tested on: NCI-H2170
Procedure, shortened: as §1

UMC-11 = tested on: UMC-11
Procedure, shortened: as §1

## CN1CCN(CCOc2cc(OC3CCOCC3)c3c(Nc4c(Cl)ccc5c4OCO5)ncnc3c2)CC1 [Saracatinib] + COc1cc2c(Oc3ccc(NC(=O)C4(C(=O)Nc5ccc(F)cc5)CC4)cc3F)ccnc2cc1OCCCN1CCOCC1 [Foretinib] (partner 0.25 µM)
HOP-62; first compound 0.02 µM
  relative viability: 1.17
HOP-62; first compound 0.2 µM
  relative viability: 1.02
HOP-62; first compound 0.6325 µM
  relative viability: 1.13
HOP-62; first compound 2 µM
  relative viability: 1.16
SW 1573; first compound 0.02 µM
  relative viability: 0.895
SW 1573; first compound 0.2 µM
  relative viability: 0.711
SW 1573; first compound 0.6325 µM
  relative viability: 1.14
SW 1573; first compound 2 µM
  relative viability: 0.792
PC-3 [JPC-3]; first compound 0.02 µM
  relative viability: 1.04
PC-3 [JPC-3]; first compound 0.2 µM
  relative viability: 0.889
PC-3 [JPC-3]; first compound 0.6325 µM
  relative viability: 0.693
PC-3 [JPC-3]; first compound 2 µM
  relative viability: 0.396
NCI-H1355; first compound 0.02 µM
  relative viability: 0.965
NCI-H1355; first compound 0.2 µM
  relative viability: 0.991
NCI-H1355; first compound 0.6325 µM
  relative viability: 1.1
NCI-H1355; first compound 2 µM
  relative viability: 0.934
LU99A; first compound 0.02 µM
  relative viability: 0.811
LU99A; first compound 0.2 µM
  relative viability: 0.562
LU99A; first compound 0.6325 µM
  relative viability: 0.831
LU99A; first compound 2 µM
  relative viability: 0.536
NCI-H2405; first compound 0.02 µM
  relative viability: 1.03
NCI-H2405; first compound 0.2 µM
  relative viability: 0.94
NCI-H2405; first compound 0.6325 µM
  relative viability: 0.98
NCI-H2405; first compound 2 µM
  relative viability: 0.658
NCI-H441; first compound 0.02 µM
  relative viability: 1.04
NCI-H441; first compound 0.2 µM
  relative viability: 0.985
NCI-H441; first compound 0.6325 µM
  relative viability: 1.08
NCI-H441; first compound 2 µM
  relative viability: 1.13
NCI-H3122; first compound 0.02 µM
  relative viability: 0.927
NCI-H3122; first compound 0.2 µM
  relative viability: 0.891
NCI-H3122; first compound 0.6325 µM
  relative viability: 0.9
NCI-H3122; first compound 2 µM
  relative viability: 0.66
EPLC-272H; first compound 0.02 µM
  relative viability: 0.403
EPLC-272H; first compound 0.2 µM
  relative viability: 0.73
EPLC-272H; first compound 0.6325 µM
  relative viability: 0.646
EPLC-272H; first compound 2 µM
  relative viability: 0.435
EKVX; first compound 0.02 µM
  relative viability: 0.866
EKVX; first compound 0.6325 µM
  relative viability: 0.268
EKVX; first compound 2 µM
  relative viability: 0.401
H3255; first compound 0.02 µM
  relative viability: 0.97
H3255; first compound 0.2 µM
  relative viability: 0.749
H3255; first compound 0.6325 µM
  relative viability: 0.987
H3255; first compound 2 µM
  relative viability: 0.3
LXF-289; first compound 0.02 µM
  relative viability: 0.922
LXF-289; first compound 0.2 µM
  relative viability: 0.748
LXF-289; first compound 0.6325 µM
  relative viability: 1.04
LXF-289; first compound 2 µM
  relative viability: 0.891
NCI-H2228; first compound 0.02 µM
  relative viability: 0.765
NCI-H2228; first compound 0.2 µM
  relative viability: 0.733
NCI-H2228; first compound 0.6325 µM
  relative viability: 0.873
NCI-H2228; first compound 2 µM
  relative viability: 0.591
LCLC-97TM1; first compound 0.02 µM
  relative viability: 1.06
LCLC-97TM1; first compound 0.2 µM
  relative viability: 0.763
LCLC-97TM1; first compound 0.6325 µM
  relative viability: 0.96
LCLC-97TM1; first compound 2 µM
  relative viability: 0.825
NCI-H1650; first compound 0.02 µM
  relative viability: 0.948
NCI-H1650; first compound 0.2 µM
  relative viability: 0.775
NCI-H1650; first compound 0.6325 µM
  relative viability: 0.46
NCI-H1650; first compound 2 µM
  relative viability: 0.456
NCI-H1993; first compound 0.02 µM
  relative viability: 0.692
NCI-H1993; first compound 0.2 µM
  relative viability: 0.625
NCI-H1993; first compound 0.6325 µM
  relative viability: 0.696
NCI-H1993; first compound 2 µM
  relative viability: 0.552
LK-2; first compound 0.02 µM
  relative viability: 0.997
LK-2; first compound 0.2 µM
  relative viability: 1.09
LK-2; first compound 0.6325 µM
  relative viability: 1.41
LK-2; first compound 2 µM
  relative viability: 0.537
SK-LU-1; first compound 0.02 µM
  relative viability: 0.602
SK-LU-1; first compound 0.2 µM
  relative viability: 0.51
SK-LU-1; first compound 0.6325 µM
  relative viability: 0.415
SK-LU-1; first compound 2 µM
  relative viability: 0.298
HCC-827; first compound 0.02 µM
  relative viability: 1.08
HCC-827; first compound 0.2 µM
  relative viability: 0.452
HCC-827; first compound 0.6325 µM
  relative viability: 0.193
HCC-827; first compound 2 µM
  relative viability: 0.17
ChaGo-K-1; first compound 0.02 µM
  relative viability: 0.943
ChaGo-K-1; first compound 0.2 µM
  relative viability: 0.699
ChaGo-K-1; first compound 0.6325 µM
  relative viability: 0.973
ChaGo-K-1; first compound 2 µM
  relative viability: 0.874
NCI-H2170; first compound 0.02 µM
  relative viability: 0.989
NCI-H2170; first compound 0.2 µM
  relative viability: 0.705
NCI-H2170; first compound 0.6325 µM
  relative viability: 1.03
NCI-H2170; first compound 2 µM
  relative viability: 0.872
UMC-11; first compound 0.02 µM
  relative viability: 0.977
UMC-11; first compound 0.6325 µM
  relative viability: 0.982
UMC-11; first compound 2 µM
  relative viability: 0.734
